# Source: ChEMBL document CHEMBL1134181, “Synthesis and biological evaluation of novel amides of polyunsaturated fatty acids with dopamine” (Bioorg Med Chem Lett, 2001)
# What was measured:
# Rattus norvegicus [1] = assay: Tested for decrease in rectal temperature 5 min after ip injection; type: functional
# Rattus norvegicus [2] = species: Rattus norvegicus; assay: Tested for percent immobility time in the ring test, expressed as % of control (p<0.01); type: functional
# Rattus norvegicus [3] = species: Rattus norvegicus; assay: Tested to induce analgesia in hot plate test, expressed as percent of latency time (p<0.05); type: functional
# Rattus norvegicus [4] = species: Rattus norvegicus; assay: Tested to induce analgesia in hot plate test, expressed as percent of latency time; type: functional
# Rattus norvegicus [5] = assay: Tested for decrease in rectal temperature 10 min after ip injection; type: functional
# Cannabinoid receptor 1 = Cannabinoid receptor 1 (Rattus norvegicus, UniProt P20272); assay: Concentration required to displace 0.4 nM [3H]SR-141,716A from CB1 receptor in rat brain preparations in the presence of 0.1 mM phenylmethyl sulfonyl fluoride; type: tissue-based
# Cannabinoid receptor 1, sequence (P20272 whole entry): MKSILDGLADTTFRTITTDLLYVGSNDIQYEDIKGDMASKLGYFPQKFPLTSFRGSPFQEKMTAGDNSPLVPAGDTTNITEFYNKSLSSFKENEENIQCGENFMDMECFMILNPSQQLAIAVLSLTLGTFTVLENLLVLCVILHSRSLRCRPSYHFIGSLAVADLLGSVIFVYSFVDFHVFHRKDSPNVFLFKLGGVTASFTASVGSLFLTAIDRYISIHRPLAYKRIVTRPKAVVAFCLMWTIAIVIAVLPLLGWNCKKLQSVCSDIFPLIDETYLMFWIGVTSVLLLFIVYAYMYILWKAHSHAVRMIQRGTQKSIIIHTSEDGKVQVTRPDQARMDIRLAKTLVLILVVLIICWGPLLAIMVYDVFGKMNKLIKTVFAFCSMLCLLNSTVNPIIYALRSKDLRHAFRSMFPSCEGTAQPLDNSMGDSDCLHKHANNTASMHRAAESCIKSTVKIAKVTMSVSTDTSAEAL
Structure (SMILES),Rectal temperature (Rattus norvegicus [1]),Immobility time (Rattus norvegicus [2]),Latency time (Rattus norvegicus [3]),Latency time (Rattus norvegicus [4]),Rectal temperature (Rattus norvegicus [5]),Ki (Cannabinoid receptor 1)
CC/C=C\C/C=C\C/C=C\C/C=C\C/C=C\CCCC(=O)NCCc1ccc(O)c(O)c1,1.64 °C,658%,135%,–,–,–
CCCCC/C=C\C/C=C\C/C=C\CCCCCCC(=O)NCCc1ccc(O)c(O)c1,0.43 °C,693%,–,129%,0.7 °C,–
CC/C=C\C/C=C\C/C=C\C/C=C\CCCCC(=O)NCCc1ccc(O)c(O)c1,1.45 °C,570%,–,120%,1.67 °C,–
CC/C=C\C/C=C\C/C=C\C/C=C\C/C=C\C/C=C\CCC(=O)NCCc1ccc(O)c(O)c1,0.9 °C,674%,296%,–,1.1 °C,–
CC/C=C\C/C=C\C/C=C\C/C=C\C/C=C\CCCCCC(=O)NCCc1ccc(O)c(O)c1,1.35 °C,610%,144%,–,1.82 °C,1370 nM
CCCCC/C=C\C/C=C\CC/C=C\CCCC(=O)NCCc1ccc(O)c(O)c1,0.5 °C,528%,–,162%,0.4 °C,1720 nM
CCCCC/C=C\C/C=C\C/C=C\C/C=C\CCCC(=O)NCCO [ANANDAMIDE],1.93 °C,750%,–,165%,2.53 °C,–
CCCCC/C=C\C/C=C\C/C=C\C/C=C\CCCC(=O)NCCc1ccc(O)c(O)c1 [ARACHIDONOYL DOPAMINE],1.35 °C,500%,222%,–,1.27 °C,380 nM
